According to patent publication US20230257398A1, “PYRIMIDINE-BASED TRICYCLIC COMPOUND AND USE THEREOF” (Chia Tai Tianqing Pharmaceutical Group Co., Ltd., priority 2020, published 2023):

target: T1, sGC (Homo sapiens, UniProt Q02108+Q02153); assay: lnCap cell-based cGMP expression assay (stimulating activity for sGC); conditions: with DETA-NO, 37° C. 30 min, HTRF cGMP
T1 construct: Preparation of LNCap Cells; endogenous in cells; host or cells: LNCaP cells (14th generation), no transfection described
T1 sequence (Q02153 1-619): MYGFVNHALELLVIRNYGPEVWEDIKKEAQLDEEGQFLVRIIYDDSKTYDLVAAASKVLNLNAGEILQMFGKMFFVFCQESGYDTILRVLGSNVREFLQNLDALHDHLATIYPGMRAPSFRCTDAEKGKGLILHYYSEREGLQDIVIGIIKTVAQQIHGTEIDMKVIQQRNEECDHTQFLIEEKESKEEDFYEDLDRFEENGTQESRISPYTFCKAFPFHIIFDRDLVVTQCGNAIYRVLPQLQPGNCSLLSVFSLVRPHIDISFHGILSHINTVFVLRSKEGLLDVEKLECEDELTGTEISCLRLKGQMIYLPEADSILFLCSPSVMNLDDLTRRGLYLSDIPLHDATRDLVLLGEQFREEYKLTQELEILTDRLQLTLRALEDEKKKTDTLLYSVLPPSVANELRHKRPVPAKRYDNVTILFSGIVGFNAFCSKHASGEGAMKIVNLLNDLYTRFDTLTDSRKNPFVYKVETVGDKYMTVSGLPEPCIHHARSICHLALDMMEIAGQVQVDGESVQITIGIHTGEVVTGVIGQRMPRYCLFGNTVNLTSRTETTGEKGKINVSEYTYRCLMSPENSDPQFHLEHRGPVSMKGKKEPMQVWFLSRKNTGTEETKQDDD
T1 sequence (Q02108 1-690): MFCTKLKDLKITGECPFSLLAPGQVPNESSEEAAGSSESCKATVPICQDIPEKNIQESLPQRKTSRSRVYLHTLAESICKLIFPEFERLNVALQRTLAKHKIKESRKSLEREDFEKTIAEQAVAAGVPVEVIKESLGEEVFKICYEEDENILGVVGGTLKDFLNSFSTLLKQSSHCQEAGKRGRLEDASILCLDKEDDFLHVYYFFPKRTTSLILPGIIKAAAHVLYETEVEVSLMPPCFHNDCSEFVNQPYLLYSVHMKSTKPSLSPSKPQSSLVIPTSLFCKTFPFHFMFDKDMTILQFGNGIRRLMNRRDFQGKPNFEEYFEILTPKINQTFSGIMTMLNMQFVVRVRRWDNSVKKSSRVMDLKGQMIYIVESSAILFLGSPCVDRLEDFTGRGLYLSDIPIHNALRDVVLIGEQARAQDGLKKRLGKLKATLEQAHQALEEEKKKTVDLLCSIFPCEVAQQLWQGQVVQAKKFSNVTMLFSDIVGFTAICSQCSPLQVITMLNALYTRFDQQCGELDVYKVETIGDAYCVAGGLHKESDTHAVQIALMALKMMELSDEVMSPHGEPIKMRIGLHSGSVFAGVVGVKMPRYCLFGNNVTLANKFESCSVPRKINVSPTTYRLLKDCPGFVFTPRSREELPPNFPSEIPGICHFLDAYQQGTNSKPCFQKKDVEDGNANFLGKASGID
Method: I. lnCap Cell-Based cGMP Expression Assay
1) Preparation of Solutions
10% BSA (Bovine Serum Albumin)
10 g of BSA was dissolved in 100 mL of double distilled water (ddH2O) to give 10% BSA.
5 mM DETA (Diethylenetriamine)-NO
10 mg of DETA-NO was weighed out and dissolved in 12.2 mL of double distilled water (ddH2O) to give 5 mM DETA-NO, which was aliquoted and cryopreserved in a freezer at −20° C.
a) To 1 mL of a lysis buffer was added 50 μL of cGMP-D2 (D2-labeled cyclic guanosine monophosphate), and the mixture was well mixed.
b) To 1 mL of a lysis buffer was added 50 μL of anti-cGMP cryptate (Eu^3+ cryptate-labeled anti-cyclic guanosine monophosphate antibody), and the mixture was well mixed.
(1) The compounds were diluted to 5 mM with DMSO. 10 μL of each of the compounds was transferred to a shallow well plate for Echo.
(2) The compounds were gradiently diluted with Echo. Each of the compounds was diluted to obtain 10 concentration gradients, and 50 nL of each of the concentration gradients was added to a 384 microwell plate.
3) Preparation of LNCap Cells
(1) LNCap medium: RPMI1640+10% fetal bovine serum+1% […].
(2) Phosphate buffered saline, pancreatin and the medium used in the process of cell passaging were pre-heated in a water bath at 37° C.
(3) The cells (the 14th generation) were taken out of the 37° C., 5% CO2 incubator, and the old medium was pipetted off the culture flask.
(4) 5 mL of phosphate buffered saline was pipetted into the culture flask to rinse the cells, and then the liquid was discarded.
(5) 3 mL of pancreatin was pipetted into the culture flask. After the culture flask was shaken, the liquid was discarded, and the culture flask was placed in the incubator.
(6) After about 2 min the culture flask was taken out. […] The cell suspension was transferred to a 50 mL centrifuge tube.
(7) 0.7 mL of the cell suspension was pipetted into a counter cup and the cells were counted on a ViCell XR. The remaining cells were centrifuged at 1000 rpm for 5 min, and the supernatant was removed.
(8) The cells were washed by adding 10 mL of the washing buffer and centrifuged at 1000 rpm for 5 min, and the supernatant was removed.
(9) The assay buffer was added to adjust the cell concentration to 1.25×10^6/mL. The cells were added to the microwell plate at 8 μL/well.
4) Formulation and Addition of DETA-NO
(1) 10 μL of 5 mM DETA-NO was added to 1240 μL of the assay buffer and to 1657 μL of the assay buffer to give 40 μM DETA-NO and 30 μM DETA-NO, respectively.
(2) DETA-NO was transferred to the 384 microwell plate at 2 μL/well using Bravo.
(3) The mixtures were centrifuged at 1500 rpm for 5 min. The microwell plate was incubated at 37° C. for 30 min.
5) Preparation of cGMP Standard Curve
(1) 1 mM of the cGMP stock solution was diluted to 10 μM with the assay buffer. Then 4-fold gradient dilution was performed to obtain 11 concentration gradients.
(2) The cGMP dilutions were added to the microwell plate at 10 μL/well.
6) Addition of Detection Reagents and Plate Reading
(1) cGMP-D2 was transferred to the 384 microwell plate at 5 μL/well using Bravo. The mixtures were centrifuged at 1500 rpm for 1 min.
(2) The anti-cGMP cryptate was transferred to the 384 microwell plate at 5 μL/well using Bravo. The mixtures were centrifuged at 1500 rpm for 1 min.
(3) The plate was incubated at room temperature for 1 h.
(4) 665/615 was read using envision.
(1) cGMP standard curve: a standard curve was generated using Graphpad prism based on the cGMP concentrations and 665/615 ratios.
(2) Conversion of HTRF (homogeneous time-resolved fluorescence) ratios (665/615) to cGMP concentrations: in Graphpad prism, the HTRF ratios (665/615) were copied into the ratio column of the cGMP standard curve, and the “Log inhibitor vs response-variable slope” analysis was run with “interpolate” selected to convert the HTRF ratios (665/615) to cGMP concentrations. […]

In order of falling “MEC: minimum effective concentration to stimulate cGMP production (three times greater than the basal value) in lnCap cells” value:
1. CC12CCC(=O)Nc3nc(-c4nn(CCC(F)(F)C(F)(F)F)c5ncc(F)cc45)nc(c31)NC(=O)C2 (centres unmarked) [Compound 014]  402.7 nM
2. CCNC(=O)OC12CCOc3nc(-c4nn(Cc5ccccc5F)c5ncc(F)cc45)nc(c31)NC2=O (centres unmarked) [Compound 050]  231.7 nM
3. CC12CCC(=O)Nc3nc(-c4nn(Cc5c(F)cccc5F)c5ncc(F)cc45)nc(c31)NC(=O)C2 (centres unmarked) [Compound 011]  178.6 nM
4. COC(=O)NC12CCOc3nc(-c4nn(Cc5ccccc5F)c5ncc(F)cc45)nc(c31)NC2=O (centres unmarked) [Compound 049]  126.5 nM
5. CC12CCC(=O)Nc3nc(-c4nn(Cc5ccccc5F)c5ncc(F)cc45)nc(c31)NC(=O)C2 (centres unmarked) [Compound 008]  88.37 nM
6. CN1C(=O)C2(C)CC(=O)Nc3nc(-c4nn(Cc5ccccc5F)c5ncc(F)cc45)nc1c32 (centres unmarked) [Compound 030]  84.34 nM
7. O=c1[nH]c2nc(-c3nn(Cc4ccccc4F)c4ncc(F)cc34)nc3c2n1CCN3 [Compound 002]  81.22 nM
8. CC12CC(=O)Nc3nc(-c4nn(Cc5ccccc5F)c5ncc(F)cc45)nc(c31)NC(=O)C2 [Compound 007]  55.54 nM
9. CC12CC(=O)Nc3nc(-c4nn(Cc5c(F)cccc5F)c5ncc(F)cc45)nc(c31)NC(=O)C2 [Compound 010]  51.76 nM
10. CN1C(=O)CC2(C)C(=O)Nc3nc(-c4nn(Cc5ccccc5F)c5ncc(F)cc45)nc1c32 (centres unmarked) [Compound 029]  37.34 nM
11. CCOC(=O)C12CCOc3nc(-c4nn(Cc5ccccc5F)c5ncc(F)cc45)nc(c31)NC2=O (centres unmarked) [Compound 048]  33.55 nM
12. CC12C(=O)Nc3nc(-c4nn(Cc5ccccc5F)c5ncc(F)cc45)nc(c31)NC(=O)C2(F)F (centres unmarked) [Compound 034]  31.53 nM
13. CC12OCCNc3nc(-c4nn(Cc5ccccc5F)c5ncc(F)cc45)nc(c31)NC2=O (centres unmarked) [Compound 039]  28.15 nM
14. CC12CCNc3nc(-c4nn(CCC(F)(F)C(F)(F)F)c5ncc(F)cc45)nc(c31)NC(=O)C2 (centres unmarked) [Compound 023]  26.12 nM
15. CC12CNC(=O)c3nc(-c4nn(Cc5ccccc5F)c5ncc(F)cc45)nc(c31)NC2=O (centres unmarked) [Compound 028]  21.26 nM
16. CC1(C)C(=O)Nc2nc(-c3nn(Cc4ccccc4F)c4ncc(F)cc34)nc3c2C1C(=O)N3 (centres unmarked) [Compound 031]  19.78 nM
17. CC12CC(=O)Nc3nc(-c4nn(CCC(F)(F)C(F)(F)F)c5ncc(F)cc45)nc(c31)NC2=O (centres unmarked) [Compound 016]  17.51 nM
18. CC12CCC(=O)Nc3nc(-c4nn(CCC(F)(F)C(F)(F)F)c5ncc(F)cc45)nc(c31)NC2=O (centres unmarked) [Compound 018]  13.12 nM
19. CC12CCNc3nc(-c4nn(Cc5ccccc5F)c5ncc(F)cc45)nc(c31)NC2=O (centres unmarked) [Compound 003]  7.97 nM
20. CC12CC(=O)Nc3nc(-c4nn(Cc5ccccc5F)c5ncc(F)cc45)nc(c31)NC2=O (centres unmarked) [Compound 024]  7.59 nM
21. CC12CC(=O)Nc3nc(-c4nn(Cc5ccccc5F)c5ncc(F)cc45)nc(c31)NC2=O (centres unmarked) [Compound 001]  6.38 nM
22. CC12CCNc3nc(-c4nn(CCC(F)(F)C(F)(F)F)c5ncc(F)cc45)nc(c31)NC2=O (centres unmarked) [Compound 009]  5.8 nM
23. CC12CCNc3nc(-c4nn(Cc5c(F)cccc5F)c5ncc(F)cc45)nc(c31)NC2=O (centres unmarked) [Compound 015]  4.66 nM
24. CC12CC(=O)Nc3nc(-c4nn(Cc5c(F)cccc5F)c5ncc(F)cc45)nc(c31)NC2=O (centres unmarked) [Compound 017]  3.46 nM
25. CC12CCC(=O)Nc3nc(-c4nn(Cc5c(F)cccc5F)c5ncc(F)cc45)nc(c31)NC2=O (centres unmarked) [Compound 013]  3.12 nM
26. CC12CCC(=O)Nc3nc(-c4nn(Cc5ccccc5F)c5ncc(F)cc45)nc(c31)NC2=O (centres unmarked) [Compound 019]  2.4 nM
